The record followed here is EP4806892A1, “CEREBLON E3 UBIQUITIN LIGASE INHIBITOR” (GAN & LEE PHARMACEUTICALS CO., LTD., priority 2023, dated 2025).

What all share (type): cell-based
One assay has as its target T1, IRAK4 (Homo sapiens, UniProt Q9NWZ3).
T1 construct: The supernatant was carefully collected and analyzed for IRAK4 protein levels by immunoblotting; host or cells: THP-1
T1 sequence (Q9NWZ3 1-460): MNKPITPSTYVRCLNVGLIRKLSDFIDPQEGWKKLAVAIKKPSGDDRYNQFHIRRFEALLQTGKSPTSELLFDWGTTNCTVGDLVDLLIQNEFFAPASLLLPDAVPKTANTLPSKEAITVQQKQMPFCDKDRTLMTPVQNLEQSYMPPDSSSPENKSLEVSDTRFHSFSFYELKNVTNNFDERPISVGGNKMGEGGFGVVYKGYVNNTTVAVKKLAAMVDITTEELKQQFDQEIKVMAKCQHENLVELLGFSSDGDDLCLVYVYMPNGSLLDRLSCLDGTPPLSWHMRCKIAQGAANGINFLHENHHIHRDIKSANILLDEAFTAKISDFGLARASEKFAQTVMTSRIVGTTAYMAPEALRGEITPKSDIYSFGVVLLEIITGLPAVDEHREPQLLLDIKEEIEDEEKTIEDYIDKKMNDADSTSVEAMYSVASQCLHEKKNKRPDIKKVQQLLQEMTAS
In words: IRAK4 degradation in THP-1 cells (Western blot). The note with it: 24 hours. The protocol:
2 mL of THP-1 cells were seeded into a 6-well cell culture plate at a density of 4 × 10^5 cells/well. After adding 1 µL of compound in dimethyl sulfoxide solution (final concentration 10-10,000 nM) and continuing to incubate at 37°C, 5% CO2 for 24 hours, cells were collected into 2 mL centrifuge tubes and centrifuged at 125 g at 4°C for 5 minutes. The cell pellet was washed once with 1 mL of pre-chilled 1× DPBS and resuspended and lysed in 50 µL of RIPA lysis buffer (P0013B, Beyotime) and 1× protease inhibitor cocktail (P1005, Beyotime). After incubation on ice for 20 minutes, the cells were centrifuged at 14,000 g at 4°C for 30 minutes. The supernatant was carefully collected and analyzed for IRAK4 protein levels by immunoblotting.
Western blotting: The total protein concentration in the collected cell lysate supernatant was determined using the BCA protein concentration assay kit (enhanced) (P0009, Beyotime). Based on the total protein concentration detected by BCA, the protein concentration was adjusted to 1 µg/µL using RIPA lysis buffer and 5× SDS-PAGE protein loading buffer (MB01015, GenScript). The protein was denatured in a 95°C water bath for 5 minutes. After denaturation, the condensed water on the centrifuge tube wall was collected by centrifugation and used as the loading sample. […] Electrophoresis was performed at 100 V for 20 minutes, then switched to 150 V for 40 minutes. After electrophoresis, the proteins in the SDS-PAGE gel were transferred to a PVDF membrane and transferred at a constant voltage of 100 V for 60 minutes. After transfer, the PVDF membrane corresponding to the IRAK4 protein and internal reference protein was cut and incubated in 1× QuickBlock blocking buffer (P0252, Beyotime) for 30 minutes at room temperature on a shaker. […] After incubation, the PVDF membrane was washed three times with 1× TBST buffer for 5 minutes each. […] The membrane was then washed again three times with 1× TBST buffer for 5 minutes each. Finally, the membrane was imaged using a dual-color infrared laser imaging system (Odyssey DLx, LI-COR). Protein maps were analyzed for grayscale values using Image Studio Lite software. The grayscale correction value for each sample was calculated using the formula: grayscale correction value = grayscale value of the target protein / grayscale value of the corresponding internal reference. The grayscale correction values of the compound group and the control group were then compared to calculate the degradation rate of the compound.
On the technique in general: A western blot detects proteins with antibodies after separation by electrophoresis.

A further assay concerns TNFα. In words: LPS-induced TNFα secretion by PBMC (HTRF detection). The note with it: Homo sapiens, hPBMC, 20 hours compound then LPS 200 ng/mL for 5 hours, read-out: IC50 (inhibition of LPS-induced TNFα). The procedure:
(§1) After thawing, cryopreserved hPBMC (FPB003F-C, Shanghai OriBiotech) cells were resuspended in RPMI 1640 medium (30-2001,ATCC) containing 10% inactivated FBS (10099141C, Gibco) and cultured overnight at 37°C and 5% CO2. The next day, hPBMC cells were seeded in a 96-well cell culture plate at a density of 2 × 10^5 cells/well/100 µL (2 × 10^6 cells/mL), and 100 µL of compound in dimethyl sulfoxide solution (final concentration 0.0064-2500 nM) was added. […] The cell plate was placed in a 37°C, 5% CO2 incubator for 5 hours, and then centrifuged at 1000 rpm for 15 minutes. 100 µL of cell supernatant was collected from each well for cytokine concentration testing, which was tested immediately or frozen at -80°C for testing.
The TNFα concentration in the supernatant of LPS-induced THP-1 cells was determined using the TNF […] detection kit (62[…], PerkinElmer).
TNFα standard solutions of varying concentrations were prepared according to the product instructions, ranging from 0 to 2500 pg/mL. Equal volumes of Eu Cryptate antibody (1×) and d2 antibody (1×) were used to prepare the antibody mixture. 16 µL of standard solution or sample supernatant and 4 µL of the antibody mixture were added to each well of a 384-well white plate. The mixture was centrifuged at 800 rpm for 1 minute and incubated at room temperature for 2 hours. The absorbance at 620 nm and […] was read using a microplate reader (SPARK m1000pro, TECAN). A standard curve was plotted using the signal values of each TNFα standard solution. The TNFα concentration in each sample was determined based on the corresponding concentration of the signal value on the standard curve. The inhibitory rate of the compound on LPS-induced TNFα expression in THP-1 cell supernatants at different drug concentrations was calculated based on the TNFα concentration. The inhibition rate data were plotted in GraphPad Prism 8.0 software, and the IC50 value was calculated. Inhibition Rate = [1−(OD(Sample)−OD(Blank))/(OD(Control)−OD(Blank))] × 100% [formula] Table 9: Degradation effect of example compounds on IRAK4 in PBMC cells

The next assay deals with IL-6. Put plainly: LPS-induced IL-6 secretion by hPBMC (ELISA). The conditions noted are these: Homo sapiens, 20 h compound then LPS 200 ng/mL for 5 h; for inhibition at […]: 2500nM, read-out: Inhibition Rate of IL-6 (2500nM). The procedure: as §1, with “OriBiotech.)” for “OriBiotech)”, “(30-2001, ATCC)” for “(30-2001,ATCC)”, “h,” for “hours,”, “min.” for “minutes.”, “awhich” for “which”
The IL-6 concentration in the supernatant of hPBMC cells induced by LPS was determined using a Human IL-6 ELISA kit (D6050, RD).
IL-6 standard solutions of varying concentrations were prepared according to the product instructions, ranging from 0 to 300 pg/mL. 100 µL of Assay Diluent RD1W and 100 µL of standard solution or sample supernatant were added to a pre-coated ELISA plate and incubated at room temperature for 2 hours. After washing the plate four times with 1× wash buffer, then 200 µL of Human IL-6 Conjugate was added and incubated at room temperature for 2 hours. After washing the plate four times with 1× wash buffer, then 200 µL of Substrate Solution was added and incubated at room temperature for 20 minutes. Finally, 50 µL of Stop Solution was added to terminate the reaction. The absorbance at 450 nm and 570 nm were read using a microplate reader (SPARK m1000pro, TECAN). The standard curve was plottd by the signal value of each concentration of IL-6 standard solution, and the IL-6 concentration in each sample was determined according to the corresponding concentration of the signal value of each well on the standard curve. The inhibition rate of the compound on LPS-induced IL-6 in the hPBMC cell supernatant at different drug concentrations was calculated according to the IL-6 concentration. The inhibition rate data were plotted in GraphPad Prism 8.0 software to calculate the IC50 value. Inhibition Rate = [1−(OD(sample)−OD(blank))/(OD(control)−OD(blank))] × 100% [formula] Table 10: Inhibitory effect of Example compounds on LPS-induced IL-6 secretion by hPBMC
Background: ELISA stands for enzyme-linked immunosorbent assay.

One may read the IC50 as the concentration that inhibits the measured activity by half. For orientation: inhibition means the share of the control response that was lost under treatment. With `O=C1CCN(c2ccc3c(c2)OCC[C@H]2CN(C[C@H]4CC[C@@H](OC5CCN(C(=O)[C@H]6CC[C@H](n7cc(NC(=O)c8cnn9ccc(N%10C[C@H]%11C[C@@H]%10CO%11)nc89)c(C(F)F)n7)CC6)CC5)CC4)CCN32)C(=O)N1` [IR-P-1], on IRAK4, the “IRAK4 degradation (10nM)” value was “B (50% > degradation rate ≥ 20%)” and the “IRAK4 degradation (100nM)” value is reported as “B (50% > degradation rate ≥ 20%)”. Moreover, the concentration for half-maximal inhibition (IC50) in the assay on TNFα amounted to 78.6 nM. Also, in the assay with IL-6, the inhibition at […] worked out at 87%.

As for `O=C1CCN(c2ccc3c(c2)OCC[C@@H]2CN(C[C@H]4CC[C@@H](OC5CCN(C(=O)[C@H]6CC[C@H](n7cc(NC(=O)c8cnn9ccc(N%10C[C@H]%11C[C@@H]%10CO%11)nc89)c(C(F)F)n7)CC6)CC5)CC4)CCN32)C(=O)N1` [IR-P-2], on IRAK4, the “IRAK4 degradation (10nM)” value is “B (50% > degradation rate ≥ 20%)” and the “IRAK4 degradation (100nM)” value is recorded as “B (50% > degradation rate ≥ 20%)”. Also, the IC50 in the assay on TNFα stood at 184 nM. Moreover, the inhibition at […] in the assay with IL-6 came to 86%.

Turning to `O=C1CCN(c2ccc3c(c2)OCC[C@H]2CN(C[C@H]4CC[C@H](OC5CCN(C(=O)[C@H]6CC[C@H](n7cc(NC(=O)c8cnn9ccc(N%10C[C@H]%11C[C@@H]%10CO%11)nc89)c(C(F)F)n7)CC6)CC5)CC4)CCN32)C(=O)N1` [IR-P-3], at IRAK4, the “IRAK4 degradation (10nM)” value is listed as “A (a degradation rate ≥ 50%)” and the “IRAK4 degradation (100nM)” value is “A (a degradation rate ≥ 50%)”. Also, in the assay with TNFα, the IC50 worked out at 64.3 nM. Further, the inhibition at 0.02 µM with IL-6 (20nM, read-out: Inhibition Rate of IL-6 (20nM)) was 63%. Further, the inhibition at […] in the assay on IL-6 was found to be 89%.

Take `O=C1CCN(c2ccc3c(c2)OCC[C@@H]2CN(C[C@H]4CC[C@H](OC5CCN(C(=O)[C@H]6CC[C@H](n7cc(NC(=O)c8cnn9ccc(N%10C[C@H]%11C[C@@H]%10CO%11)nc89)c(C(F)F)n7)CC6)CC5)CC4)CCN32)C(=O)N1` [IR-P-4]: at IRAK4, the “IRAK4 degradation (10nM)” value is on record as “B (50% > degradation rate ≥ 20%)” and the “IRAK4 degradation (100nM)” value is listed as “A (a degradation rate ≥ 50%)”. The IC50 in the assay on TNFα was 142 nM. Also, the inhibition at […] with IL-6 turned out to be 84%.

Take `O=C1CCN(c2ccc3c(c2)OC2(CC3)CN(CC3CCN(C(=O)[C@H]4CC[C@H](n5cc(NC(=O)c6cnn7ccc(N8C[C@H]9C[C@@H]8CO9)nc67)c(C(F)F)n5)CC4)CC3)C2)C(=O)N1` [IR-P-5]: at IRAK4, the “IRAK4 degradation (10nM)” value is given as “B (50% > degradation rate ≥ 20%)”. Further, the IC50 with TNFα stood at 69.6 nM. For the same compound, the inhibition at […] with IL-6 came out at 78%.
